Measured values: patent publication US20200299612A1, “HIGH PERFORMING, HIGH IMPACT BLOOM ACCORD” (International Flavors & Fragrances Inc., priority 2016, published 2020)

Legend:
Experiment in all cases: Antibacterial activity
[1] = test system: s. aureos
Description: (§1) The fragrance accords can contain antibacterial ingredients described above. See U.S. Pat. No. 6,495,512 for a list of suitable antibacterial ingredients.

[2] = test system: e. hirae
Description: as §1

[3] = test system: e. coli
Description: as §1

Measured: antibacterial activity

COc1ccc(C)cc1 [1-methoxy-4-methylbenzene]
high antibacterial activity: all assays above

C=CC(C)(O)CCC=C(C)C (stereo not drawn) [3,7-dimethylocta-1,6-dien-3-ol]
high antibacterial activity: all assays above
